In assay [1] the target is recombinant human dipeptidyl peptidase IV (DPPIV) (Homo sapiens, UniProt P27487). Put plainly: Selective assay, protease inhibition (DPPIV). Particulars: substrate Gly-Pro-AMC; read-out: pIC50 (DPPIV) (converted). Format: biochemical. How it is done:
(§1) The specificity of the synthesized compounds against recombinant human dipeptidyl peptidase IV (DPPIV), fibroblast activation protein (FAP), or prolyl oligopeptidase (PREP) was expressed by their half-maximal inhibitory concentration (IC50) against the proteases.
(§2) 1) The synthesized compound was dissolved in DMSO to a final concentration of 100 mM.
b) For DPPIV assay: The test compound was diluted to a 1 mM solution using a buffer of 25 mM Tris, 250 mM NaCl at pH 7.5.
(§3) 2) The prepared 1 mM test compound solution was serially diluted (1:10) into a row of a 96-well plate using the corresponding buffer mentioned above.
(§4) 3) The substrate was prepared as a DMSO stock solution (FAP and PREP: 2.5 mM Z-Gly-Pro-AMC (VWR, Cat. No. I-1145.0050BA) in DMSO; DPPIV: 100 mM Gly-Pro-AMC (VWR, Cat. No. 100042-646) in DMSO), and subsequently the substrate stock solution was diluted 20-fold using the corresponding buffer mentioned above.
(§5) 4) The enzyme was diluted into the appropriate assay buffer. The final concentrations of DPPIV, FAP, and PREP were […], respectively. To each required well in columns 2-10, 180 μL was added separately. Column 1 (A, B, C) was prepared with 200 μL of the appropriate assay buffer as a control. […]
(§6) 7) Fluorescence was measured at λex: 380, λem: 460. […]

Assay [2] deals with T1, recombinant human fibroblast activation protein (FAP) (Homo sapiens, UniProt Q12884).
T1 sequence (Q12884 1-760): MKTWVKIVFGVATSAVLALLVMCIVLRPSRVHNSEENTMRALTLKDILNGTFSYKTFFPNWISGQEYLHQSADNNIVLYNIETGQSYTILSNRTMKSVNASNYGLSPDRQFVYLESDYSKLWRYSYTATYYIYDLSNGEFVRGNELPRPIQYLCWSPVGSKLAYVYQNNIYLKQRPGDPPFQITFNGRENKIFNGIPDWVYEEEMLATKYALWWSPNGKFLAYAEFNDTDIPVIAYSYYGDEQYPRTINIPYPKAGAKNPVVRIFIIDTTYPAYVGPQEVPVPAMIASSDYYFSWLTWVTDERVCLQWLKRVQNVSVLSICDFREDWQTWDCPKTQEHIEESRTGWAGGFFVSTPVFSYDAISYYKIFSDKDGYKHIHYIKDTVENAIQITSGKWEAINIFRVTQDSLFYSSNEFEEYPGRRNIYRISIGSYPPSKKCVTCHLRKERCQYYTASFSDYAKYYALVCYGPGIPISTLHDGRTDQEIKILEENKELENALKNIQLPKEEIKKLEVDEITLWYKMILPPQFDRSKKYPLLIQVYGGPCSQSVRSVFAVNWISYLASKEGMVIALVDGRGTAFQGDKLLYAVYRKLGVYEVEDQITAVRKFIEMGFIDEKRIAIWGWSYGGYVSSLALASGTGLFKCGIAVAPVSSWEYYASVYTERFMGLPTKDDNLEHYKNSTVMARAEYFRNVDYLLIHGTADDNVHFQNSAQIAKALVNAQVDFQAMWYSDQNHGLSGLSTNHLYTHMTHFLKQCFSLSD
In words: Selective assay, protease inhibition (FAP). The following applies: substrate Z-Gly-Pro-AMC. Format: biochemical. How it is done: as §1, §2
a) For FAP assay: The test compound was diluted to a 1 mM solution using a buffer of 50 mM Tris, 140 mM NaCl at pH 7.5.
as §3, §4, §5, §6

Structures are written as SMILES.

This note sets out measurements from patent US20260226049A1, “NITROGEN-CONTAINING HETEROCYCLIC COMPOUND, PREPARATION METHOD THEREFOR, AND USE THEREOF” (BIVISION PHARMACEUTICALS, INC, priority 2023, published 2026).

Sequence of recombinant human dipeptidyl peptidase IV (DPPIV) (P27487 whole entry): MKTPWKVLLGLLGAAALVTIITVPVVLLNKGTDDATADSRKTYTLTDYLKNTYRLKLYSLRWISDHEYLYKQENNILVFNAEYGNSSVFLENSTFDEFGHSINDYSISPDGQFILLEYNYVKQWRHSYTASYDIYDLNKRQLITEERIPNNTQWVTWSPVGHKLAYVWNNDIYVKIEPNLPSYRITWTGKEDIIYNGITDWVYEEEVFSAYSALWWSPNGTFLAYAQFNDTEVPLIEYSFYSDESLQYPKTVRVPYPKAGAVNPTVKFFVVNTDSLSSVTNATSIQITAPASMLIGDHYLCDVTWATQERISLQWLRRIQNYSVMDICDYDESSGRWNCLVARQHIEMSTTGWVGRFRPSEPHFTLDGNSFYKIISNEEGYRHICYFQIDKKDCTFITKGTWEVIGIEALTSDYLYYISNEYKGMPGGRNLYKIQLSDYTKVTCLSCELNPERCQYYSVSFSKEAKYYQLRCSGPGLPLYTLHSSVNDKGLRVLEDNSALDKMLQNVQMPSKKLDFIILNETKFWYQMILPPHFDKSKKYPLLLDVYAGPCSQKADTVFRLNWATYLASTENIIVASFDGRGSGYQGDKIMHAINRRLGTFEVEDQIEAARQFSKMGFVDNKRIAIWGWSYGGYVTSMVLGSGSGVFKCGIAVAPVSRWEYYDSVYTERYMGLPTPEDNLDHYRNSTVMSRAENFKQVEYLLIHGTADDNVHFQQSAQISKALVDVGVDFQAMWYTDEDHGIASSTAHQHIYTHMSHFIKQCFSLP

`N#C[C@@H]1CC(F)(F)CN1C(=O)CNC(=O)c1cccc2c1CCN(C(=O)CCC(=O)NCCNC(=O)CCC(C(=O)O)N1CCN(CC(=O)O)CCN(CC(=O)O)CCN(CC(=O)O)CC1)C2` (some centres unmarked) [JHH5]: the IC50 in assay [1] was greater than 1000 nM; in assay [2], 10 to 100 nM.
